The values that follow come from patent US12247224B2, “Organoids for drug screening and personalized medicine” (SENTING, LLC, priority 2014, dated 2025).

Type in all cases: cell-based, human
Series [1] has as its system tumor-organoids UHN6, UHN17, UHN3, UHN5 and UHN15 (primary PDAC). Kind of series: MTT assay of tumor-organoid cultures treated with drugs. An excerpt: (§1) (A) Time lapse imaging sequence of UHN6 derived organoids. (B) H&E, phase and immunofluorescence images for KRT19 (bright) and DAPI (dark) of images of tumor-organoids and their matched primary tumors. ((C) H&E images showing maintenance of inter-organoid heterogeneity in histoarchitecture representing variation in primary patient tumor. (D) Normalized MTT assay readings of organoid cultures treated with gemcitabine for 4 days. E) Normalized MTT assay readings of organoid cultures with gemcitabine and epigenetic inhibitor of the H3K27me3 writer EZH2 (UNC1999). (F) Normalized MTT reading of tumor-organoids treated with UNC199 alone. See online Methods for details. (G) Immunostaining for H3K27me3 (bright) in two primary patient tumors (top panel) and corresponding tumor-organoids (bottom panel). (H) Basal 02 consumption as measured by Seahorse™ flux analyzer with and without UNC1999 treatment. For MTT and oxygen consumptions experiments, data represent mean+/−S.D. P value (t-test, two tailed): N.S-, not significant; *−p=0.01-0.05; **−p=0.001-0.01; ***, p=<0.001 (n=3). All scale bars equal to 50 μm.
(§2) For MTT and oxygen consumptions experiments, data represent mean+/− S.D. P value (t-test, two tailed): N.S-, not significant; *−p=0.01-0.05; **−p=0.001-0.01; ***, p=<0.001 (n=3). (B) Immunostaining for H3K27me3 in control (DMSO) or UNC 1999-treated tumor-organoids. Scale bars, 50 μm. (C) Tumor-organoids (top panel) and primary tumors (bottom panel) derived from tumor UHN3, UHN 5 and UHN15, show consistent patient-specific variation in staining for H3K27me3. Scale bars, 50 μm.
For pancreas progenitor organoid culture, T9 cells were resuspended and plated in the PTOM (Pancreatic Progenitor and Tumor Organoid Media) containing DMEM with factors including serum-free supplements, FGFs, and insulin. The cells were plated on a bed of Matrigel as described before 3. At day 8 in 3D culture, replace culture medium with fresh POMM (Pancreatic Organoid Maintenance Media) (PTOM media without FGFs) with 5% Matrigel every 4 days. PODM I (Pancreatic Organoid Differentiation Media) contains DMEM with B27, 2-phospho ascorbic acid, FGF, EGF, TGF beta inhibitors. PODM II contains DMEM with B27, 2-phospho ascorbic acid, FGF, EGF. Fresh tissues of primary tumors from patients were washed twice with DMEM, digested with collagenase (Roche) and resuspended in PTOM. Tumor cells were then seeded in 3D culture chambers as described above. Culture media were replaced every 4 days. For serial passaging of organoids, day 16 organoids were treated with collagenase for 2 hours then further dissociated with trypsin for 10-30 minutes. Cells were collected and re-seeded in 3D culture following protocols as described above. […]
We analyzed five organoid cultures, UHN6, UHN17, UHN3, UHN5 and UHN15. […]

A further series has as its system progenitor-organoids. Kind of series: Toxicity of epigenetic inhibitors to normal cells in progenitor-organoids. Particulars: compared with JQ1, LAQ824, SGC0946, data not shown. Here is the method:
For pancreas progenitor organoid culture, T9 cells were resuspended and plated in the PTOM (Pancreatic Progenitor and Tumor Organoid Media) containing DMEM with factors including serum-free supplements, FGFs, and insulin. The cells were plated on a bed of Matrigel as described before 3. At day 8 in 3D culture, replace culture medium with fresh POMM (Pancreatic Organoid Maintenance Media) (PTOM media without FGFs) with 5% Matrigel every 4 days. PODM I (Pancreatic Organoid Differentiation Media) contains DMEM with B27, 2-phospho ascorbic acid, FGF, EGF, TGF beta inhibitors. PODM II contains DMEM with B27, 2-phospho ascorbic acid, FGF, EGF. Fresh tissues of primary tumors from patients were washed twice with DMEM, digested with collagenase (Roche) and resuspended in PTOM. Tumor cells were then seeded in 3D culture chambers as described above. Culture media were replaced every 4 days. For serial passaging of organoids, day 16 organoids were treated with collagenase for 2 hours then further dissociated with trypsin for 10-30 minutes. Cells were collected and re-seeded in 3D culture following protocols as described above. MCF-10A cells were obtained from ATCC. Gene expression data will be uploaded into NCBI's Gene Expression Omnibus (GEO). […]

The test system of series [2] is tumor-organoids UHN17, UHN3. Kind of series: Basal O2 consumption measured by Seahorse flux analyzer with and without UNC1999.
Description: as §1
Recent studies reveal a relationship between oxygenation and regulation of H3K27me3 epigenetic mark^28,29. […] We measured basal respiration rates to investigate if tumor-organoids show differences in oxygen consumption. […]

In series [3] the test system is H3K27me3 mark in UHN17 organoids. Kind of series: Immunostaining for H3K27me3 in control (DMSO) or UNC1999-treated tumor-organoids. Particulars: at concentrations with significant growth-inhibitory effects.
Description: as §2
Inhibitors of BET (JQ1), histone deacetylase (LAQ824), DOT1L (SGC0946), G9a (A366) and EZH2 (UNC1999) were tested in progenitor-organoids to investigate their toxicities to normal cells. […] A366 and UNC1999 were administered to organoid cultures in combination with the current standard of care, gemcitabine (See FIG. 6 legend and FIG. 12). Organoids were not sensitive to G9a inhibition (FIG. 12A).

Take `COc1cc2c(cc1OCCCN1CCCC1)N=C(N)C21CCC1` [A366]: the “sensitivity of organoids to G9a inhibition (MTT)” value in series [1] (in combination with gemcitabine, tumor-organoids) is given as “not sensitive”. Further, in the series on progenitor-organoids, the “toxicity to normal cells” value is “least toxic”.

Regarding `CCCc1cc(C)[nH]c(=O)c1CNC(=O)c1cc(-c2ccc(N3CCN(C(C)C)CC3)nc2)cc2c1cnn2C(C)C` [UNC1999], the “basal oxygen consumption after EZH2 inhibition” value in series [2] was “suppressed”. In addition, the “suppression of proliferation by EZH2 inhibition alone (MTT)” value in series [1] (UNC1999 alone, UHN17, UHN3, UHN5) is recorded as “effective in suppressing proliferation”. Moreover, the “proliferation upon EZH2 inhibition compared to gemcitabine treatment alone (MTT)” value in series [1] (in combination with gemcitabine, UHN17, UHN3, UHN5, UHN15) is “dose-dependent decreases in proliferation”. Besides, the “toxicity to normal cells” value in the series on progenitor-organoids is recorded as “least toxic”. Also, in series [3], the “H3K27me3 mark after treatment” value is given as “suppressed the H3K27me3 mark”.

Take `Nc1ccn([C@@H]2O[C@H](CO)[C@@H](O)C2(F)F)c(=O)n1` [gemcitabine]: in series [1] (gemcitabine for 4 days, all five organoid cultures UHN6, UHN17, UHN3, UHN5, UHN15), the “growth inhibition in MTT assays” value is given as 30%.
